Laboratory results published in patent US11433072B1 (Hikma Pharmaceuticals USA Inc., priority 2021, dated 2022).
Like-named read-outs stand apart in the source and are kept apart here.

Experiments:
[1] = acidic environment; data not shown
[2] = cited from earlier work

Which Solubility [1] does the source give for C=CC(=O)N1CCC[C@@H](n2nc(-c3ccc(Oc4ccccc4)cc3)c3c(N)ncnc32)C1 [ibrutinib, 1-(3R)-3-(4-amino-3-(4-phenoxyphenyl)-1H-pyrazolo[3,4-d]pryimidin-1-yl)prop-2-en-1-one] here?
The Solubility was “higher in an acidic environment”.

And the Solubility ([2]; HCl at pH 1.2)?
Its Solubility is “slightly soluble”.

And the Solubility ([2]; aqueous solutions of pH 4.5-8)?
The Solubility was “practically insoluble”.
